Source: patent publication US20230141718A1, “METHODS OF TREATING GLIOBLASTOMA” (CELGENE QUANTICEL RESEARCH, INC., priority 2021, published 2023)
“Also recorded” adds a separate entry of the source.

Experiments:
[1] = Safety (TRAEs/TEAEs), CC-90010-GBM-002 Parts A and B; format: in vivo
Text: This was then followed by a break in treatment therapy, e.g., from 1 to up to 4 weeks. […] Adjuvant therapy cycles were repeated from 2 to 6 times. After adjuvant therapy, was a monotherapy treatment.
The demographics and characteristics of treated patients are described in the below table.

[2] = tested on: progressive or recurrent astrocytoma or recurrent glioblastoma; test: Antitumor response per RANO and PFS, CC-90010-GBM-001; format: in vivo, human
Text: The Response Assessment in Neuro-Oncology criteria (RANO) is used to assess response to first-line treatment of glioblastoma. See, Leao, D. J. et al., American Journal of Neuroradiology 2019, 1-11. The RANO criteria divides response into four types of response based on imaging (MRI) and clinical features: (1) complete response (CR); (2) partial response (PR); (3) stable disease (SD); and (4) progression. For this assessment, a measurable disease is defined as bidimensional contrast-enhancing lesions with clearly defined margins, with 2 perpendicular diameters of at least 10 mm, visible on ≥2 axial slices. The nonmeasurable disease is defined as either unidimensional measurable lesions, masses with margins not clearly defined as frequently noted in the surgical margins, or lesions with maximal perpendicular diameters of <10 mm.
The study described in this example (CC-90010-GBM-001 study/NCT04047303) enrolled patients with progressive or recurrent astrocytoma or recurrent glioblastoma who have failed radiation and chemotherapy, and who are candidates for surgical tumor resection as part of their salvage regimen.
(§1) Patients were treated with Compound A at 30 mg daily on Day 1 to Day 4 prior to undergoing indicated tumor resection and to maintain platelet count above the minimum of […] recommended for surgery (Part A, preoperative treatment). Following recovery from surgery and a minimum of 4 weeks from the first dose of Compound A, subjects who were fit to continue were treated with Compound A at 45 mg on a 4 days on/24 days off schedule (180 mg per 28-day cycle). Maintenance treatment continued until disease progression, unacceptable toxicity, or withdrawal of consent.

CCR1 RNA = test: Blood CCR1 RNA pharmacodynamics, CC-90010-GBM-002; format: in vivo, human; settings: for Day 4 blood CCR1 RNA downregulation: 2-4 hours post-dose
Text: The primary objectives of the study in this example were to establish the safety, maximum tolerated dose (MTD), and recommended phase 2 dose (RP2D) of Compound A. The preliminary efficacy, pharmacokinetics, and pharmacodynamics were also investigated.
The study described in this example (CC-90010-GBM-002/NCT04324840) is a phase 1B dose-finding study investigating standard of care of Compound A in combination with TMZ with or without radiotherapy (RT) in subjects with newly diagnosed GBM. Part A of the study is escalating the oral doses of Compound A in combination with adjuvant TMZ to estimate the MTD and/or the RP2D of Compound A as adjuvant therapy and escalating the oral doses of Compound A in combination with concomitant TMZ+radiotherapy (RT) to estimate the MTD and/or the RP2D of Compound A as concomitant therapy. Part B of the study is the safety and efficacy of Compound A administered at or below the MTD determined for the adjuvant therapy (AT) and concomitant therapy (CT).
The interim results for adjuvant Compound A+temozolomide are described. For adjuvant therapy, patients received Compound A at 15, 30, or 45 mg daily (4 days on/24 days off)+temozolomide administered per label for 6 cycles (150 mg/m^2 at Cycle 1 then 200 mg/m^2; QD for 5 days), followed by Compound A at 45 mg monotherapy daily (4 days on/24 days off).

[3] = Brain tumor tissue, plasma and CSF concentration at resection, CC-90010-GBM-001; format: in vivo, human
Experimental: The primary objectives of the study in this example were determination of tumor tissue concentration and plasma pharmacokinetics (PK) of Compound A. The secondary and exploratory objectives included safety, antitumor activity, cerebrospinal fluid concentration, and pharmacodynamics (PD).
as §1
The geometric mean peak of Compound A plasma concentration on Day 4 was 1.90 μM, and the median time to peak concentration was 1.75 hours. The median time from the day 4 dose of Compound A to resection was 23 hours (range, 4.6-31.3). […] At the time of resection, the geometric mean concentrations of Compound A in plasma and brain tumor tissue were 1.02 and 0.74 μM, respectively. Geometric mean free Compound A concentration in brain tissue was calculated to be 0.028 μM. Geometric mean Compound A concentration in CSF (cerebrospinal fluid) was 0.14 μM, and the mean CSF:plasma ratio was 0.17. None of the brain tumor tissue samples for PK analyses was confirmed to comprise homogeneous contrast-enhancing or non-enhancing tumor tissue, precluding measurement in these subgroups.
At Cycle 1 Day 4, the concentration of Compound A was measured in resected brain tumor from 20 subjects at 6 to 24-hour post dose. At the time of resection (N=19), the mean (f SDev) concentration of Compound A in plasma was 397 f 77.78 ng/mL (geometric mean: 389.23 ng/mL; coefficient of variation: 20.1%). The mean ratio of compound concentration in the resected brain tissue to compound concentration in plasma is 0.84 f 0.25 for 19 of the 20 subjects.

## Cn1cc(-c2cc(S(C)(=O)=O)ccc2OCC2CC2)c2ccccc2c1=O [Compound A, 4-[2-(cyclopropylmethoxy)-5-methylsulfonylphenyl]-2-methylisoquinolin-1-one]
[1]; Part A adjuvant cohort
  patients with Grade 3/4 TRAEs: 56%
  patients with TEAEs leading to treatment discontinuation: 11%
  patients with any-grade gastrointestinal TRAEs: 78%
  patients with grade 3/4 diarrhea: one
  patients with thrombocytopenia TRAE, any grade: 72%
  patients with thrombocytopenia TRAE, grade 3/4: 50%
[1]; Part A adjuvant cohort (Compound A + TMZ)
  patients with any-grade TRAEs: 94%
[1]; Part A concomitant cohort
  patients with Grade 3/4 TRAEs: 64%
  patients with TEAEs leading to treatment discontinuation: 7%
  patients with gastrointestinal TRAEs: 93%
  patients with grade 3/4 TRAE of diarrhea: 7%
  patients with nausea, any-grade TRAE: 79%
  patients with thrombocytopenia, any grade: 71%
  patients with thrombocytopenia, grade 3/4: 50%
[1]; Part A concomitant cohort (Compound A + TMZ + RT)
  patients with any-grade TRAEs: 100%
[1]; Part A, both cohorts
  treatment-related deaths: no treatment-related deaths
[1]; Part B
  patients with Grade 3/4 TRAEs related to Compound A: 29%
  patients with Grade 3/4 neutropenia related to Compound A: 18%
  patients with Grade 3/4 thrombocytopenia related to Compound A: 18%
[1]; Part B arm A
  patients with TRAE leading to treatment discontinuation: 4%
  patients with TRAEs related to Compound A: 86%
  patients with diarrhea related to Compound A: 43%
  patients with nausea related to Compound A: 46%
  patients with thrombocytopenia related to Compound A: 46%
[1]; adjuvant Compound A plus TMZ and concomitant Compound A plus TMZ and RT
  tolerability in long-term follow-up: well tolerated
[2]; 17 evaluable patients
  PD per RANO criteria: 59%
  stable disease per RANO criteria: 41%
[2]; IDH wild-type disease, 95% CI 1.4-3.6
  median PFS: 3.0 months
[2]; IDH wild-type disease, 95% CI 2.7-40.4
  6-month PFS rate: 16.3%
[2]; IDH-mutant disease
  6-month PFS rate: 0%
[2]; IDH-mutant disease, 95% CI 0.4-1.9
  median PFS: 1.2 months
[2]; all evaluable
  Six month progression-free survival: 12%
[2]; all evaluable, 95% CI 1.4-3.3
  Median progression-free survival (PFS): 1.9 months
CCR1 RNA; 15-mg group
  Day 4 blood CCR1 RNA downregulation: downregulated partially
CCR1 RNA; 30-mg group
  Day 4 blood CCR1 RNA downregulation: ≥ 50%
CCR1 RNA; following first and last dose of ≥30 mg, cycle 1, CC-90010-GBM-002 (FIG. 6)
  CCR1 downregulation: ≥ 50%
[3]; at the time of resection
  geometric mean concentration in brain tumor tissue: 0.74 µM
  geometric mean concentration in plasma: 1.02 µM
[3]; at the time of resection (N=19)
  geometric mean concentration in plasma: 389.23 ng/mL
[3]; calculated
  Geometric mean free concentration in brain tissue: 0.028 µM
[3]; human, brain tumor tissue, 30 mg, as stated in the comparison with other agents, read-out: brain tumor tissue:plasma ratio
  Kp: 0.14
[3]; in vivo
  Geometric mean concentration in CSF (cerebrospinal fluid): 0.14 µM
  mean CSF:plasma ratio: 0.17
[3]; patients with recurrent high-grade glioma
  BBB / brain tumor tissue penetration: found to penetrate the BBB and was detected in brain tumor tissue; also recorded: good tumor tissue penetration; also recorded: high brain penetrance
